According to ChEMBL document CHEMBL1201862, “PubChem BioAssay data set” (2004):
Active and inactive are the calls of the source.

Experiments:
[1] = target: T1, Ubiquitin-conjugating enzyme E2 N (Homo sapiens, UniProt P61088); format: functional;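 further: Dose-response confirmation in a TR-FRET assay detecting UBC13-driven polyubiquitin chain formation, inhibition measured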
T1 sequence (P61088 whole entry): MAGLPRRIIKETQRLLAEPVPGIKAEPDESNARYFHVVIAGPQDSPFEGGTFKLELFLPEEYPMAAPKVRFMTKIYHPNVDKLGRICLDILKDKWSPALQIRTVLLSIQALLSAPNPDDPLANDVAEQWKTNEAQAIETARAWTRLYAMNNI

[2] = target: FAD-linked sulfhydryl oxidase ALR (Homo sapiens, UniProt P55789); assay: ALR-catalysed DTT oxidation blockers – biochemical, H2O2 detection, luminescence, cherry-pick, dose response (AID 493248)
Sequence of FAD-linked sulfhydryl oxidase ALR (P55789 whole entry): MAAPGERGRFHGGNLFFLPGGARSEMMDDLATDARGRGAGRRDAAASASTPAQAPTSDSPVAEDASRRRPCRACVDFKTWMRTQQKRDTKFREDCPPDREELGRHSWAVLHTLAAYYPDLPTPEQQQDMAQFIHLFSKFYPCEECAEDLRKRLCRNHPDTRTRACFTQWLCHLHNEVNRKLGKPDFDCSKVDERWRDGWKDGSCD

Vero [3] = assay: cells; format: functional; details: Chlorocebus sabaeus
Coagulation factor XII = target: T2, Coagulation factor XII (Homo sapiens, UniProt P00748); format: functional;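 further: activated factor XIIa alpha cleaving a fluorogenic AMC peptide substrate; inhibitor potency from loss of enzyme activity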
T2 sequence (P00748 whole entry): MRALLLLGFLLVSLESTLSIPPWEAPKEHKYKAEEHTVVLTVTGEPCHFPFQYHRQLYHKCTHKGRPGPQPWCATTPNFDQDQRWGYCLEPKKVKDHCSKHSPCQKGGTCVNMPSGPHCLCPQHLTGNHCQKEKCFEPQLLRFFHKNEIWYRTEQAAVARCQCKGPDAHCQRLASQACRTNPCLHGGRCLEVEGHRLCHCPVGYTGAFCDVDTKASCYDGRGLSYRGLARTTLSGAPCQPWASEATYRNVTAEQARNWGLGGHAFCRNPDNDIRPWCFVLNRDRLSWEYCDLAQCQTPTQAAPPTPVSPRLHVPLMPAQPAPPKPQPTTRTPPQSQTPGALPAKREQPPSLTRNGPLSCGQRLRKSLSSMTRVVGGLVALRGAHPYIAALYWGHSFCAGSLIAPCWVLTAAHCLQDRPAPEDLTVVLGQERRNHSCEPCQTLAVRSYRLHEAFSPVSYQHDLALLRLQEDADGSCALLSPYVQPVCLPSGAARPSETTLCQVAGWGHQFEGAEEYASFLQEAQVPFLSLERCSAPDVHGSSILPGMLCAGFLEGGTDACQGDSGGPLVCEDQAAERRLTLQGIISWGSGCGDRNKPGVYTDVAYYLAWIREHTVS

Vero [4] = assay: cells; format: functional, cell-based; details: Chlorocebus sabaeus
[5] = target: T3, Sentrin-specific protease 7 (Homo sapiens, UniProt Q9BQF6); format: functional;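 further: Luminescence-based dose-response confirmation of ultra-high-throughput screening hits, measuring inhibition of SENP7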
T3 sequence (Q9BQF6 whole entry): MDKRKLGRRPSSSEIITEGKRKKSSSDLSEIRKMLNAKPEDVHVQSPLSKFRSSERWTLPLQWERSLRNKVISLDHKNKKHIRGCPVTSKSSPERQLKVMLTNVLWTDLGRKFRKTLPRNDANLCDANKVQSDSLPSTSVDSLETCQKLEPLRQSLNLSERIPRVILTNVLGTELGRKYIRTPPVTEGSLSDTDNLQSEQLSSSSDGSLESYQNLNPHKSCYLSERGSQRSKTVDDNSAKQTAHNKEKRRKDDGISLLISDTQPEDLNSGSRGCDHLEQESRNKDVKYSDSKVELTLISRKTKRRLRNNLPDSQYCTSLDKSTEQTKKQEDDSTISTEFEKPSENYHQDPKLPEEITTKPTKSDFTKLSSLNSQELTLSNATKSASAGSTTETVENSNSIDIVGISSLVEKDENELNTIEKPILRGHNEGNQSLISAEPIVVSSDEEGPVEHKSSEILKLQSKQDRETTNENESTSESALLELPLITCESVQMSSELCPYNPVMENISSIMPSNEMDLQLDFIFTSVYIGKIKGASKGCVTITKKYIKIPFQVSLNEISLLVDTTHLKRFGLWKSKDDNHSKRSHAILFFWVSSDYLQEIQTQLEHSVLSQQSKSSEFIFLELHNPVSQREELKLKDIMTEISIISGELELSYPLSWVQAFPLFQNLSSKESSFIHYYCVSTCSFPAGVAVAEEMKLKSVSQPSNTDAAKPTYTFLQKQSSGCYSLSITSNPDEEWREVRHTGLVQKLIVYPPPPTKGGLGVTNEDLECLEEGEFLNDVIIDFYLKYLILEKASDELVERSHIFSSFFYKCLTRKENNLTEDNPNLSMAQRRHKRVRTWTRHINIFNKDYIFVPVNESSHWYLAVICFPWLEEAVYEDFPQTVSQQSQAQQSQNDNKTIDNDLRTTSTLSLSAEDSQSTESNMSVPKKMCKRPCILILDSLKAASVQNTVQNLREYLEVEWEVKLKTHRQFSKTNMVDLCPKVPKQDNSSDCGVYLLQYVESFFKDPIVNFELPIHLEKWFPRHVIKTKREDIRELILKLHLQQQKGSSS

[6] = target: T4, Sentrin-specific protease 6 (Homo sapiens, UniProt Q9GZR1); format: functional;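 further: Luminescence-based dose-response confirmatory assay of SENP6 inhibition, following up an ultra-high-throughput screen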
T4 sequence (Q9GZR1 whole entry): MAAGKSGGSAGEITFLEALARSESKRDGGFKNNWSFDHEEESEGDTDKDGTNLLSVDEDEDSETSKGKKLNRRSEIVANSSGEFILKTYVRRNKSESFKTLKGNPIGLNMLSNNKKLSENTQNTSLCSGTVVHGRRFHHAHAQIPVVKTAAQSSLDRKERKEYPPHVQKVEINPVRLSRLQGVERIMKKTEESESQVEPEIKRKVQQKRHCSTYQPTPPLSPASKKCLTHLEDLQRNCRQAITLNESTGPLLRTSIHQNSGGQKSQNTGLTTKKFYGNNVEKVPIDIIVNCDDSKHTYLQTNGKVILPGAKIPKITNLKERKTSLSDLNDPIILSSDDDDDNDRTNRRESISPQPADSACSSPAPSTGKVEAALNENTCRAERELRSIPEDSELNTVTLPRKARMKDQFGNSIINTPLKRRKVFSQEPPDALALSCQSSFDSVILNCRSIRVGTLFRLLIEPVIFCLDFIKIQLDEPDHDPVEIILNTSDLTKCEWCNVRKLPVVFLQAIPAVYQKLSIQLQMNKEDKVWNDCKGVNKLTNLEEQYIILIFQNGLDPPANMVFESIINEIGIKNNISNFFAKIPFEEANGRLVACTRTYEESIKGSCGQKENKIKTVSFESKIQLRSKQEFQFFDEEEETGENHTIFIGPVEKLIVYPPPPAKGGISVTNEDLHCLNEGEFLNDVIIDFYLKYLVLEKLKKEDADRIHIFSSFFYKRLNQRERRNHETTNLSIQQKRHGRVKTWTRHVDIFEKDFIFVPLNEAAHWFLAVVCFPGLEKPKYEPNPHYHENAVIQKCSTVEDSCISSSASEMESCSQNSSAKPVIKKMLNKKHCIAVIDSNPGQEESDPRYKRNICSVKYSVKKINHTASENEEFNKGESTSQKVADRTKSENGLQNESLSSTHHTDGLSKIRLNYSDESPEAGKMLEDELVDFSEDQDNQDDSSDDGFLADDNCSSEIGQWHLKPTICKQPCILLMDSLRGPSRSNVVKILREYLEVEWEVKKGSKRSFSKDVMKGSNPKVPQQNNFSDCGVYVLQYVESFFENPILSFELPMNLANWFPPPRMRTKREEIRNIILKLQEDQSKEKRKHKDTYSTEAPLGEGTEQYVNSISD

Caspase-3 = target: T5, Caspase-3 (Homo sapiens, UniProt P42574); format: functional;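 further: Dose-response selectivity test against caspase-3 for candidate inhibitors of sentrin-specific proteases (SENPs)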
T5 sequence (P42574 whole entry): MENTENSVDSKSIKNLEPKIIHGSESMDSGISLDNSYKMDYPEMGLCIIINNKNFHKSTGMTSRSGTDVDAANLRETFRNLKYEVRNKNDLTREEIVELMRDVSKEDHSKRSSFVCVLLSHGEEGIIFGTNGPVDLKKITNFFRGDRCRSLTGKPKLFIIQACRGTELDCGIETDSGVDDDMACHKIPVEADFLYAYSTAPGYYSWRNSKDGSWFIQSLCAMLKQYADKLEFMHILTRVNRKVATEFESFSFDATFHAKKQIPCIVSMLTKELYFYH

[7] = target: T6, Sentrin-specific protease 8 (Homo sapiens, UniProt Q96LD8); format: functional;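 further: luminescence read-out of SENP8 inhibition, dose-response confirmation following an ultra-high-throughput screen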
T6 sequence (Q96LD8 whole entry): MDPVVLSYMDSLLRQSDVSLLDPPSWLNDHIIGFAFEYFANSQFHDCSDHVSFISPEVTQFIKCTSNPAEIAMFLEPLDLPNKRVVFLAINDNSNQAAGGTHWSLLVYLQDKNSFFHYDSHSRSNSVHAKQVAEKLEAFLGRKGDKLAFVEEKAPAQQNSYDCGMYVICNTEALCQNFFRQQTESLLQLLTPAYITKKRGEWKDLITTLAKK

Cytochrome P450 2C19 = Cytochrome P450 2C19 (Homo sapiens, UniProt P33261); assay: Cytochrome panel assay with activity outcomes. Panel member name: p450-cyp2c19 Compounds with AC50 equal or less than 10 uM are considered active; format: functional; details: read-out: AC50
Sequence of Cytochrome P450 2C19 (P33261 whole entry): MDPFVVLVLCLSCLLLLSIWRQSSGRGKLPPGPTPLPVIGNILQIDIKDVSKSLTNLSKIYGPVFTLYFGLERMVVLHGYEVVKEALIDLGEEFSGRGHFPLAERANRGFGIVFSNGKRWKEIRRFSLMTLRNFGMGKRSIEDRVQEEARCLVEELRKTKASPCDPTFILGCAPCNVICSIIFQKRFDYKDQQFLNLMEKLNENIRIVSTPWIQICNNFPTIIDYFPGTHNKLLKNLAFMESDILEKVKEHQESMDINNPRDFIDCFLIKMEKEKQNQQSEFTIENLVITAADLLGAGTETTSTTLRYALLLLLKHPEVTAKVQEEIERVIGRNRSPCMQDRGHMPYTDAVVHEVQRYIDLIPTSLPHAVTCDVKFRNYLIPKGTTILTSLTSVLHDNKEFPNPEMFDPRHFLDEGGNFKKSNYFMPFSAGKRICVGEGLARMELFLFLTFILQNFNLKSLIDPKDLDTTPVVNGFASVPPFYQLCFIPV

Cytochrome P450 2D6 = Cytochrome P450 2D6 (Homo sapiens, UniProt P10635);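 further: CYP2D6 member of a cytochrome P450 panel assay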
Sequence of Cytochrome P450 2D6 (P10635 whole entry): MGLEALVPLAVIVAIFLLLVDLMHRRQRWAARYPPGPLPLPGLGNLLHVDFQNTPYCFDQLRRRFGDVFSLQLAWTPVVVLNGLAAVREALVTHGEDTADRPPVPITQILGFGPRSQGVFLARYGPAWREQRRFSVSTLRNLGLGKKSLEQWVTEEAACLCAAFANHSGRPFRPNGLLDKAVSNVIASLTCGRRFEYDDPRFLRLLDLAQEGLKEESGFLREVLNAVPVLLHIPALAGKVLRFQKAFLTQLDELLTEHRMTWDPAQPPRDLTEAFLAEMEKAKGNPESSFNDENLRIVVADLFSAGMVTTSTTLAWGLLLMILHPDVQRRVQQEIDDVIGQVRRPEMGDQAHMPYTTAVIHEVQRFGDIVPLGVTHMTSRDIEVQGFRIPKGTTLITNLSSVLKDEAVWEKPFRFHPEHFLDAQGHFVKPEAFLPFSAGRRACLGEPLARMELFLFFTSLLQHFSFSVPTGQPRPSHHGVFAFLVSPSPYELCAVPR

SN12K1 = assay: cells; format: functional; details: Homo sapiens
P388 = assay: cells; format: functional; details: Mus musculus
P388/ADR = assay: cells; format: functional; details: Mus musculus
[8] = Luminescence Cell-Based Dose Retest to Confirm Inhibitors of Cancer Stem Cells. [Related pubchem assays (depositor defined):AID2717, AID2721]; format: functional; details: Homo sapiens
Nonstructural protein 1 = Nonstructural protein 1 (Influenza A virus, UniProt Q194T2); format: functional, Influenza A virus (A/California/07/2009(H1N1))
Sequence of Nonstructural protein 1 (Q194T2 whole entry): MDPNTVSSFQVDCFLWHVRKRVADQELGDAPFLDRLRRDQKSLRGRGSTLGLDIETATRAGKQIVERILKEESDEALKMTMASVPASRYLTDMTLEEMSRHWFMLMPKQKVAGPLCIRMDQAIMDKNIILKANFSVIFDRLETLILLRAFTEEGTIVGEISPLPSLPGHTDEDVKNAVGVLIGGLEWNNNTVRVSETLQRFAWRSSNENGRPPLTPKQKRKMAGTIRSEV

H4 = assay: Luminescence Cell-Based Dose Response HTS to Identify Activators of 5'UTR Stem-Loop Driven Prion Protein mRNA Translation in H4 Neuroglioblastoma Cells. [Related pubchem assays: 1829 (Project Summary), 1814 (Primary HTS)]; format: functional; details: Homo sapiens
BJ [9] = assay: BJ-TERT-LT-ST fibroblast viability loss – cell-based, RAS-independent, luminescence, dose response (AID 1935); format: functional; details: Homo sapiens;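 further: BJ fibroblasts immortalized with TERT plus LT and ST oncogenes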
BJ [10] = assay: cells; format: functional, cell-based; details: Homo sapiens
BJ [11] = assay: BJ-TERT fibroblast viability loss – cell-based, RAS-independent, luminescence, dose response (AID 1933); format: functional; details: Homo sapiens
[12] = DRD fibroblast viability loss – cell-based, non-viral oncogenic, luminescence, dose response (AID 1934); format: functional; details: Homo sapiens
[13] = Luminescence Cell-Based Dose Response HTS to Identify Activators of Luciferase Translation or Activity in H4 […] Cells. [Related pubchem assays: 1829 (Project Summary), 1814 (Primary HTS)]; format: functional
[14] = target: Heat shock protein HSP 90-alpha (Homo sapiens, UniProt P07900); format: functional, organism-based
[15] = microbe, parasite or virus in culture; format: functional; details: Mycobacterium tuberculosis
INS1 = assay: INS-1E survival protection against cytokine death – cell-based, luminescence, retest, dose response (AID 449756); format: functional; details: Rattus norvegicus;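 further: cell death triggered by IL-1 beta plus TNF-alpha plus IFN-gamma mixture; protective hits raise ATP signal compared with cytokine alone wells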

CCOc1ccc(C(C(=O)NCC2CCCO2)N(C(=O)c2snc(C(N)=O)c2N)c2ccc3c(c2)OCCO3)cc1 (stereo unspecified)
IC50 [1]: > 20 µM (inactive)

O=C(NCCCN1CCCC1)c1ccc2c(Cl)c3c(nc2c1)CCCC3
AC50 [2]: 0.01 µM (active) | CC50 (Vero [3]): > 25 µM (active) | IC50 (Coagulation factor XII): > 50 µM (inconclusive) | IC50 (Vero [4]): > 25 µM (active)

O=C(/C=C/c1ccccc1)n1cnnc1SC/C=C/c1ccccc1
IC50 [5]: 8.8 µM (active) | IC50 [6]: 15.2 µM (active) | IC50 (Caspase-3): 37.3 µM (active) | IC50 [7]: 25.6 µM (active)

O=[N+]([O-])c1cccc(-c2cn3c([n+]2-c2ccccc2)SCC3)c1
IC50 (Vero [4]): 5.3 µM (active)

Cc1sc(N/N=C/c2cccnc2)nc1-c1ccccc1
AC50 (Cytochrome P450 2C19): 0.501 µM (inconclusive) | AC50 (Cytochrome P450 2D6): 0.794 µM (inconclusive) | CC50 (Vero [3]): > 25 µM (active) | IC50 (Vero [4]): > 25 µM (active)

CCOC(=O)c1ccc(NC(=O)c2[nH]cnc2C(=O)NC2CCN(C(=O)OC(C)(C)C)CC2)cc1
IC50 [1]: > 20 µM (inactive)

N#C[C@H](OC1OC(COC2OC(CO)C(O)C(O)C2O)C(O)C(O)C1O)c1ccccc1 (stereo partly specified)
GI50 (SN12K1): > 250 µM (inactive) | GI50 (P388): 232 µM (inactive) | GI50 (P388/ADR): 170 µM (inactive)

O=C(Nc1cccc(Cl)c1)Nc1ccccc1C(=O)NCc1ccco1
IC50 [5]: 4.05 µM (active) | IC50 [6]: 4.44 µM (active) | IC50 (Caspase-3): 21.4 µM (active) | IC50 [7]: > 100 µM (inactive)

C/C(=N\OC(=O)c1ccc(Cl)cc1)c1nccs1
IC50 [5]: 2.63 µM (active) | IC50 [6]: 11.7 µM (active) | IC50 (Caspase-3): 15.1 µM (active) | IC50 [7]: 19.2 µM (active)

COc1cc2c(c(OC)c1OC)C(=O)NCCC2
GI50 (SN12K1): > 100 µM (inactive) | GI50 (P388): > 100 µM (inactive) | GI50 (P388/ADR): > 100 µM (inactive)

Nc1nc(C2CC2)c(Sc2sc(N)nc2C2CC2)s1
AC50 [2]: 0.511 µM (active) | IC50 (Vero [4]): > 25 µM (active)

CCCCCc1cc(=O)oc2c(C(CCN(CC)CC)c3cc(OC)c(OC)c(OC)c3)c(OC)cc(OC)c12 (stereo unspecified)
IC50 [1]: > 20 µM (inactive) | AC50 [8]: 7.71 µM (active)

Oc1ccc(C=NNC(=S)Nc2cccnc2)nc1
IC50 (Nonstructural protein 1): 0.992 µM (active)

CCOC(=O)Nc1ccc2nc(N3CCCCCC3)sc2c1
IC50 [5]: 10.5 µM (active) | EC50 (H4): > 120 µM (not active) | IC50 [6]: 33.1 µM (active) | EC50 (BJ [9]): 55.5 µM (inconclusive) | IC50 (Caspase-3): 31.1 µM (active) | EC50 (BJ [10]): 111 µM (active) | EC50 (BJ [11]): 10.3 µM (inconclusive) | IC50 [7]: 9.44 µM (active) | EC50 [12]: 4.7 µM (inconclusive) | EC50 [13]: 0.153 µM (active)

COc1ccc(C2C3=C(CC(C)(C)CC3=O)Oc3ncn(Cc4ccco4)c(=N)c32)cc1 (stereo unspecified)
IC50 (Nonstructural protein 1): > 100 µM (active)

O=C1CC(N2CCCCCC2)C(=O)N1c1ccc2c(c1)OCO2 (stereo unspecified)
AC50 [14]: 4.79 µM (active)

CCn1c(C)nc2cc(C(=O)OC(C(F)(F)C(F)F)C(F)(F)C(F)F)ccc21
CC50 (Vero [3]): > 25 µM (active) | CC50 [15]: > 40 µM (active) | IC50 (Vero [4]): 24.4 µM (active)

Cc1ccc2ccc3cccnc3c2n1
IC50 (Nonstructural protein 1): 14.5 µM (active) | AC50 (INS1): 0.865 µM (active)
